Where two headings read alike, the source gives them in different places.
How the values were obtained:
α4β3δ GABAA receptor = biological target: T1, α4β3δ GABAA receptor (Homo sapiens, UniProt P28472+P48169); assay: Whole-cell electrophysiology of GABA-evoked currents, CHO cells; format: cell-based
T1 construct: expressed in transfected cells; host or cells: CHO cells (transient expression)
Method: (§1) The α1β2γ2 and α4β3δ GABAA receptor subtypes, representing synaptic and extrasynaptic subunit compositions in neurons, are widely utilized for screening new NAS drugs. In this study, a preliminary SAR study was conducted on a series of Zuranolone analogs using the LogP values predicted by ADMETlab3.0 software, recombinant human GABAA receptor cell lines, and in vitro liver microsome stability assays. The results are summarized in Table 1, Table 2, and Table 3, respectively.
(§2) The effects of Zuranolone and synthetic analogs on GABA-evoked currents were assessed in LTK cells stably expressing α1β2γ2 GABAA receptor subunits (n = 3) or CHO cells transiently expressing α4β3δ receptors (n = 3). Whole-cell mode recordings were conducted using the HEKA EPC-10 amplifier and analyzed with PatchMaster software (version 2x90, HEKA Elektronik, Lambrecht, Germany). High-throughput whole-cell recordings were performed using the Q-Patch method from Sophion. Test substances were dissolved in DMSO (dimethyl sulfoxide) to prepare 10 mmol/L stock solutions, then diluted with perfusion bath solution to concentrations ranging from 0.01 to 10 μmol/L. In this experiment, the effects of Zuranolone and its synthetic analogs on GABA-induced currents were examined in the presence of a submaximal agonist concentration at 1 μmol/L GABA (EC20). Cells were pre-incubated with increasing doses of test substances for 30 s, followed by 2 s of GABA stimulation, and currents were recorded. The maximum efficacy (Emax) of the GABAA receptor is expressed with the current induced by 1 μmol/L GABA taken as 100%, and the percentage after treatment with the test compound is calculated. The EC50 values are determined by fitting the three concentration–response curves recorded from three cells.

[1] = Plasma pharmacokinetic study in rats; format: in vivo, rat; conditions: for AUC(0-t) / C0 / half-life / Cmax / Tmax: rat plasma, n = 6; for bioavailability / Tmax: rat, plasma; for bioavailability: oral, 24.4 μmol/kg, i.g. 24.4 vs i.v. 6.1 μmol/kg, read-out: F (oral absolute bioavailability)
Method: We quantified S1–S15 and Zuranolone using a UPLC-MS/MS (Agilent 1290 Infinity II UHPLC (Agilent Technologies, Santa Clara, CA, USA) coupled with a QTRAP 5500 MS/MS (ESI source) (SCIEX, Redwood City, CA, USA for MS/MS). The method assessed the content level of S9 and Zuranolone in microsome metabolism and in rat brain tissue and plasma. An ACQUITY UPLC Peptide BEH C18 column (Waters; 50 × 2.1 mm, 1.7 μm; 60 °C; Waters Corporation, Milford, MA, USA) was used with a mobile phase of 0.02% propionic acid in water (A) and acetonitrile (B). The gradient elution of the mobile phase B is carried out as follows: it is 10% from 0 to 0.5 min, 90% from 0.8 to 2.5 min, and 10% from 2.8 to 3.5 min, with a flow rate of 0.40 mL/min. Quantitative analysis was performed on a QTRAP 5500 MS (SCIEX, Redwood City, CA, USA) in positive ionization mode with MRM (multiple reaction monitoring), using progesterone-d9 as the internal standard. MRM transitions and parameters were optimized for each analyte, with collision energies of 25 V (S1–S15), 23 V (Zuranolone), and 30 V (IS), and declustering potentials of 80 V (S1–S15), 90 V (Zuranolone), and 180 V (IS). Other conditions were as follows: curtain gas 10 psi, collision gas ‘medium’, ion spray voltage 5500 V, temperature 500 °C, and ionization source gases 1 and 2 at 50 psi.
Zuranolone was solubilized in 5% DMSO with solutol HS 15 in saline. S9 was solubilized in 10% DMSA with 30% SBECD (Zibo Qianhui Biological Technology Co., Ltd., Zibo, China) in saline. After fasting for 12 h, rats (n = 6 per group) were administered Zuranolone and S9 intragastrically (i.g.) at a dose of 24.4 μmol/kg, and intravenously (i.v.) at 6.1 μmol/kg. Blood samples (200 μL) were collected into 1.5 mL tubes containing heparin at 15 min, 30 min, 1, 2, 3, 4, 6, 8, 12, 24, 48, and 96 h after i.g. or at 5, 15, 30 min, and 1, 2, 3, 4, 6, 8, 12, 24, 48, 96 h after i.v. Plasma was separated by centrifugation for 5 min (8000 rpm, 4 °C) and stored at −80 °C immediately.
Experimental data were analyzed by GraphPad Prism software 9.0 and presented as means ± SD. Statistical differences were determined by one-way ANOVA followed by Dunnett’s post-hoc test, with p < 0.05 considered statistically significant. Main pharmacokinetic parameters were calculated using Phoenix WinNonlin 8.1 (non-compartmental model), and the absolute bioavailability of S9 was determined by the following formula: (AUC i.g. (0–t) × dose i.v.)/(AUC i.v. (0–t) × dose i.g.) × 100%.

CYP2D6 = biological target: T2, CYP2D6 (Homo sapiens, UniProt P10635); assay: Human liver CYP inhibition assay (cocktail, pooled HLM); format: in vitro ADME
T2 construct: tissue XenoTech; host or cells: pooled human liver microsomes
T2 sequence (P10635 whole entry): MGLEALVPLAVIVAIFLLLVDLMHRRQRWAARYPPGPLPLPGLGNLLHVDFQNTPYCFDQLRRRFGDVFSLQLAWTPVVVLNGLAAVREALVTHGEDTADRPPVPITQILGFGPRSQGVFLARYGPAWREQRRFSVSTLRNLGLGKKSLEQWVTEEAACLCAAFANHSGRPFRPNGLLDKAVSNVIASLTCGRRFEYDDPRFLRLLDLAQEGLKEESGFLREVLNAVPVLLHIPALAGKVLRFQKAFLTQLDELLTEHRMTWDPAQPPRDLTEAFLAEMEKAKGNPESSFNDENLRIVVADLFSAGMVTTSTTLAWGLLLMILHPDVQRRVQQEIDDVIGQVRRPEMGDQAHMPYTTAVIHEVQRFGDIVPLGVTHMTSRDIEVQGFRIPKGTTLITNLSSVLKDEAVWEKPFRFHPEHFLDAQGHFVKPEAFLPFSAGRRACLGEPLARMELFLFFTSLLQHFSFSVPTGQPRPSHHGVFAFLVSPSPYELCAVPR
Method: The main materials used in this experiment were sourced as follows: Zuranolone from BEIWANTABIO Co., Ltd. (Shanghai, China); liver microsomes (rat and human) and CYP isoenzymes (CYP1A2, CYP2C8, CYP2D6, CYP3A4) from XenoTech (Tewksbury, MA, USA); LTK cells from the China Center for Type Culture Collection (CCTCC, Wuhan, China); and CHO cells from the National Certified Cell Bank (Shanghai, China).
The IC50 values of S9 and Zuranolone on CYP isoenzymes (1A2, 2C8, 2D6, 3A4) were determined in pooled HLM using a cocktail approach, as previously reported.

α1β2γ2 GABAA receptor = biological target: T3, α1β2γ2 GABAA receptor (Homo sapiens, UniProt P14867+P47870); assay: Whole-cell electrophysiology of GABA-evoked currents, LTK cells; format: cell-based; conditions: for Emax: current induced by 1 μmol/L GABA = 100%
T3 construct: expressed in transfected cells
T3 sequence (P14867 28-456): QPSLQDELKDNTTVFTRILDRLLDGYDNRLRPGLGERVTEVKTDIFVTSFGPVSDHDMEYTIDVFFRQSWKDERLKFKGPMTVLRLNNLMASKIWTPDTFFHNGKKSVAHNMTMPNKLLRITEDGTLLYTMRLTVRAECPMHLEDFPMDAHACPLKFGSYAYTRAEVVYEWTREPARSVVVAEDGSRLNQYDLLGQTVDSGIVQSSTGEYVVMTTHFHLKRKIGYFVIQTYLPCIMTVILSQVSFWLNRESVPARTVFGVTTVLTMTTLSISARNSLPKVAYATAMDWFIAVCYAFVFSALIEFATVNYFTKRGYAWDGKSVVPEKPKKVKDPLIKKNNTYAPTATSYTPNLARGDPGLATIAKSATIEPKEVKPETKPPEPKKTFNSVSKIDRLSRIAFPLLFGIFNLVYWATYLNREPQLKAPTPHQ
T3 sequence (P47870 25-512 limits assumed): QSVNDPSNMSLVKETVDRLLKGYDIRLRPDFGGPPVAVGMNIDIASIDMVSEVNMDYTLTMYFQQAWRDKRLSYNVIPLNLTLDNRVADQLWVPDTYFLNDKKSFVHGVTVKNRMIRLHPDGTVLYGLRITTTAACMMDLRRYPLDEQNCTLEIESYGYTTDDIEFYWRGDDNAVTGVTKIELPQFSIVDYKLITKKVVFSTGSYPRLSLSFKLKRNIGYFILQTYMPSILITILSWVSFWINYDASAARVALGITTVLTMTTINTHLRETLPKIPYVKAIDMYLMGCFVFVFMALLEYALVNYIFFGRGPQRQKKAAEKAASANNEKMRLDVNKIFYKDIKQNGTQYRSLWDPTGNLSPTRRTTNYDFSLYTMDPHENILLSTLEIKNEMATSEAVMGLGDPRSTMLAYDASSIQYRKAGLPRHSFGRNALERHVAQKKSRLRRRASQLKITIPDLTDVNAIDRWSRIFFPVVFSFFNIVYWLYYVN
T3 sequence (P18507 40-475 partner): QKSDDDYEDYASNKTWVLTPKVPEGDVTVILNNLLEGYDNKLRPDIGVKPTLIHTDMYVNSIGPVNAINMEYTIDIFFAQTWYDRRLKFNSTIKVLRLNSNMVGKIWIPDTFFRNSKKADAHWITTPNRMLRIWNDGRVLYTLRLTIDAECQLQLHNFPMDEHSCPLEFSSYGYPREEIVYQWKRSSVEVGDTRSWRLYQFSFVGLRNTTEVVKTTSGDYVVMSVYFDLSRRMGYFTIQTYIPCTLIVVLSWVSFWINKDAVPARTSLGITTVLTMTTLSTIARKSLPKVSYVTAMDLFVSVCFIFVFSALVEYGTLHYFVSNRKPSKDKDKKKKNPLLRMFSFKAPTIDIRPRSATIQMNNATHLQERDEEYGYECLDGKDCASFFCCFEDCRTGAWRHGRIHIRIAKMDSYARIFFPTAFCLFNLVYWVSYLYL
Method: as §1, §2

[2] = iv, 6.1 umol/kg, i.v. 6.1 μmol/kg
[3] = po, 24.4 umol/kg, i.g. 24.4 μmol/kg

T1 sequence (P48169 36-554): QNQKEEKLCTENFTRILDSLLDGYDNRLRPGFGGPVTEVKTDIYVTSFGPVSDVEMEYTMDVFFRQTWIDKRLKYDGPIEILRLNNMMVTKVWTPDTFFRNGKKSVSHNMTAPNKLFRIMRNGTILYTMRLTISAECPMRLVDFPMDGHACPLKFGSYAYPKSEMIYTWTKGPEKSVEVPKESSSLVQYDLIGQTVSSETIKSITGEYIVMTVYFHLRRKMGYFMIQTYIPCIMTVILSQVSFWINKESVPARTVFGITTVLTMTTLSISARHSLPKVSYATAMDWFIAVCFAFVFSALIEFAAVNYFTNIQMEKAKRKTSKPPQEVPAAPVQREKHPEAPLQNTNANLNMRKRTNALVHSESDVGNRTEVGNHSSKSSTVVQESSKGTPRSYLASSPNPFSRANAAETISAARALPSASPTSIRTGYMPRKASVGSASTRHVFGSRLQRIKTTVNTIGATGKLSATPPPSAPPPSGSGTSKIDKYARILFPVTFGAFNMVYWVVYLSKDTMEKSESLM
T1 sequence (P28472 26-473): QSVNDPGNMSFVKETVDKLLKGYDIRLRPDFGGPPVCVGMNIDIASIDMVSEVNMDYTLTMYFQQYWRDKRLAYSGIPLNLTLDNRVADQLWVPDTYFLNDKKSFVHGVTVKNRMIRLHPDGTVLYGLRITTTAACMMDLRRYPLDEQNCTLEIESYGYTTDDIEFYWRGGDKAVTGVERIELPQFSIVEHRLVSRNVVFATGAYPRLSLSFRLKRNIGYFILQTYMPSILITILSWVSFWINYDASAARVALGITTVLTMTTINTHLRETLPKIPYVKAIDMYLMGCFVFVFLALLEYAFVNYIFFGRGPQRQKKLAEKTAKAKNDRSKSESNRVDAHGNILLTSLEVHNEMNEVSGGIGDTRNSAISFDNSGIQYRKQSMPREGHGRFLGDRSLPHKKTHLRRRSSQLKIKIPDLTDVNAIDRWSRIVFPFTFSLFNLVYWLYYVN
T1 sequence (O14764 25-452 partner): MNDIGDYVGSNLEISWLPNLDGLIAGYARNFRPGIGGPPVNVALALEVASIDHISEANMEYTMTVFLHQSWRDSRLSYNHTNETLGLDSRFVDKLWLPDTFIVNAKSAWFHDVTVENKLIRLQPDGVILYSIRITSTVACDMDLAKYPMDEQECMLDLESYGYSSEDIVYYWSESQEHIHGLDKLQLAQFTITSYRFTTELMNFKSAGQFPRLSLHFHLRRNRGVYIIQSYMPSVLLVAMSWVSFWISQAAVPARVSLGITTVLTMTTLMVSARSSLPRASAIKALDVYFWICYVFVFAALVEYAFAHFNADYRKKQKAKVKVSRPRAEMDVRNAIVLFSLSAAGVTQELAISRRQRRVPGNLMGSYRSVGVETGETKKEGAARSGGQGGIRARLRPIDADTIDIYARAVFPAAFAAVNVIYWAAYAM

SMILES: C[C@@]1(O)CC[C@H]2[C@H](CC[C@@H]3[C@@H]2CC[C@]2(C)[C@@H](C(=O)Cn4cnn(-c5ccnc(OCC(F)(F)F)c5)c4=O)CC[C@@H]32)C1 [S9]
- EC50 (α4β3δ GABAA receptor; CHO cells, 1 μmol/L GABA (EC20), n = 3, read-out: α4β3δ EC50): 34 ± 10 nM
- Emax (α4β3δ GABAA receptor; CHO cells, current induced by 1 μmol/L GABA = 100%, n = 3): 967 ± 118%
- efficacy as % of that of Zuranolone (α4β3δ GABAA receptor; extrasynaptic GABAA receptors): 71%
- potency as % of that of Zuranolone (α4β3δ GABAA receptor; extrasynaptic GABAA receptors): 270%
- increase in AUC compared to S28 ([1]; S28 previously reported ref 25): over 2 fold
- increase in T1/2 compared to S28 ([1]; S28 previously reported ref 25): over 2 fold
- AUC(0-t) [1, 2]: 24.2 µM·h
- C0 [1, 2]: 2.86 ± 0.223 µM
- half-life [1, 2]: 16.4 ± 0.56 h
- AUC(0-t) [1, 3]: 80.4 µM·h
- Cmax [1, 3]: 3.6 ± 0.541 µM
- half-life [1, 3]: 19.8 ± 1.5 h
- bioavailability ([1]; rats): 82.9%
- Tmax [1, 3]: ~3.7 h
- AUC0–t as fold of Zuranolone ([1]; rats, i.g. 24.4 μmol/kg): approximately 6.7 fold
- T1/2 as fold of Zuranolone ([1]; rats, i.g. 24.4 μmol/kg): approximately 5.2 fold
- AUC0–t as fold of Zuranolone ([1]; rats, i.v. 6.1 μmol/kg): approximately 4.7 fold
- T1/2 as fold of Zuranolone ([1]; rats, i.v. 6.1 μmol/kg): approximately 6.6 fold
- AUC higher than Zuranolone ([1]; rats, route not given): 6 fold
- plasma T1/2 longer than Zuranolone ([1]; rats, route not given): 5 fold
- IC50 (CYP2D6; human liver CYP isoenzymes, pooled HLM, read-out: CYP IC50: 2D6): > 30000 nM
- EC50 (α1β2γ2 GABAA receptor; LTK cells, 1 μmol/L GABA (EC20), n = 3, read-out: α1β2γ2 EC50): 50 ± 10 nM
- Emax (α1β2γ2 GABAA receptor; LTK cells, n = 3): 675 ± 163%
- enhanced GABAA receptor potency compared to S28 (α1β2γ2 GABAA receptor; S28 previously reported ref 25): over 1 fold
- efficacy as % of that of Zuranolone (α1β2γ2 GABAA receptor; synaptic GABAA receptors): 76%
- potency as % of that of Zuranolone (α1β2γ2 GABAA receptor; synaptic GABAA receptors): 250%
- efficacy as % of that of Zuranolone (α1β2γ2 GABAA receptor; synaptic and extrasynaptic GABAA receptors, not separated): approximately 75%

SMILES: C[C@@]1(O)CC[C@H]2[C@H](CC[C@@H]3[C@@H]2CC[C@]2(C)[C@@H](C(=O)Cn4cc(C#N)cn4)CC[C@@H]32)C1 [Zuranolone]
- EC50 (α4β3δ GABAA receptor): 93 ± 10 nM
- AUC(0-t) [1, 2]: 5.18 ± 1.73 µM·h
- C0 [1, 2]: 3.43 ± 1.74 µM
- half-life [1, 2]: 2.5 ± 1.3 h
- AUC(0-t) [1, 3]: 12 µM·h
- Cmax [1, 3]: 2.28 ± 0.554 µM
- half-life [1, 3]: 3.8 ± 1.7 h
- bioavailability ([1]; rats): 57.7%
- Tmax [1, 3]: ~1.2 h
- IC50 (CYP2D6): > 30000 nM
- EC50 (α1β2γ2 GABAA receptor): 123 ± 20 nM
- Emax (α1β2γ2 GABAA receptor; LTK cells, n = 3): 894 ± 40%

From publication PMC12073189, “Synthesis and Evaluation of a Novel Zuranolone Analog with High GABAA Receptor PAM Activity and Excellent Pharmacokinetic Profiles” (Molecules, 2025)
